Data taken from patent publication US8003649B2 (AstraZeneca AB, priority 2007, dated 2011).

Target: T1, Androgen Receptor (AR) (Homo sapiens, UniProt P10275, T878A)
T1 construct: cell based immuno-fluorescence assay using the LNCaP prostate epithelial cell line; endogenous in cells; host or cells: LNCaP clone FGC (ATCC CRL-1740)
T1 sequence (P10275 1-920 T878A): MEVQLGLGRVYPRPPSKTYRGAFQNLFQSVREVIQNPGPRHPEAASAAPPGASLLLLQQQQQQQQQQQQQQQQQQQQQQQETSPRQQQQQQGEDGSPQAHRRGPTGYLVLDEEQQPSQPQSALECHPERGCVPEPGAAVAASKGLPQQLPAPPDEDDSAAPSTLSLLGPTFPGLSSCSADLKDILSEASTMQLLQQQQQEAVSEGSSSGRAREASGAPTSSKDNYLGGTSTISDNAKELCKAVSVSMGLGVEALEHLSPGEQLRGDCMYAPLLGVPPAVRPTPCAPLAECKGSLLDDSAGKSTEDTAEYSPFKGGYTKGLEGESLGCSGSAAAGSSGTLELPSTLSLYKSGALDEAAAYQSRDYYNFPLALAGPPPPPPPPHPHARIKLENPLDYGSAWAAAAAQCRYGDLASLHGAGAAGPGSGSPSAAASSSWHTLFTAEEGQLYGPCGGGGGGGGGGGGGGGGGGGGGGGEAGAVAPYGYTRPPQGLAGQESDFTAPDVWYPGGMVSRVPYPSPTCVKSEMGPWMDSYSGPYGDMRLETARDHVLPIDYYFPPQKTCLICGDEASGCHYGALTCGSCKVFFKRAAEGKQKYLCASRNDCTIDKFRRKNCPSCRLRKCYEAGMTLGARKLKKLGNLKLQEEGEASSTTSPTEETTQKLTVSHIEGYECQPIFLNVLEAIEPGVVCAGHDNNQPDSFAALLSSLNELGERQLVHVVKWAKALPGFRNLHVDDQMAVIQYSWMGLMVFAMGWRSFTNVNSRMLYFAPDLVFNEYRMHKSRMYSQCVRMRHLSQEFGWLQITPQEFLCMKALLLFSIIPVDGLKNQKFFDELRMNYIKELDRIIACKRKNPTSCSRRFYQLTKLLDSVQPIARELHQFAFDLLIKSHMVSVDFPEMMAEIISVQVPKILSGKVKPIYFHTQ
Assay: LNCaP Androgen Receptor Down-regulation Cell Assay (immunofluorescence end point)
Format: cell-based
Settings: LNCaP prostate carcinoma cells, compound incubation 20-22 hours, 50% reduction of the AR signal; read-out: Androgen Receptor Down-regulation Assay (a) IC50/μM
In short: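 AR loss reported as IC50 from curve fits of fluorescence dose-response data, with AR immunostained and read by laser-scanning cytometry. Compound exposure was 20-22 h at 37° C in LNCaP cells grown in 5% charcoal-stripped FBS and plated overnight beforehand.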

Row | Structure (SMILES) | DC50 [µM]
1 | FC(F)(F)c1nnc2ccc(N3CCCC(COc4ccccc4)C3)nn12 (stereo not drawn) [Example 516, 6-[3-(Phenoxymethyl)piperidin-1-yl]-3-(trifluoromethyl)[1,2,4]triazolo[4,3-b]pyridazine] | 1.4
2 | CS(=O)(=O)c1ccc(C2CCN(c3ccc4nnc(C(F)(F)F)n4n3)CC2)cc1 [Example 521] | 5.4
3 | CNC(=O)c1ccc(C2CCN(c3ccc4nnc(C(F)(F)F)n4n3)CC2)cc1 [Example 522] | 3.9
4 | COc1ccc(C2CCN(c3ccc4nnc(C(F)(F)F)n4n3)CC2)cc1 [Example 523] | 1
5 | FC(F)(F)c1ccc(C2CCN(c3ccc4nnc(C(F)(F)F)n4n3)CC2)cc1 [Example 524] | 3.2
6 | Fc1cccc(C2CCN(c3ccc4nnc(C(F)(F)F)n4n3)CC2)c1 [Example 525] | 5.2
7 | COc1cccc(C2CCN(c3ccc4nnc(C(F)(F)F)n4n3)CC2)c1 [Example 526] | 2.5
8 | COc1cccc(OC2CCN(c3ccc4nnc(C(F)(F)F)n4n3)CC2)c1 [Example 527] | 0.67
9 | COc1ccc(OC2CCN(c3ccc4nnc(C(F)(F)F)n4n3)CC2)cc1 [Example 528] | 2.2
10 | Fc1ccccc1OC1CCN(c2ccc3nnc(C(F)(F)F)n3n2)CC1 [Example 529] | 1.9
11 | FC(F)(F)c1nnc2ccc(N3CCC(Oc4ccccc4Cl)CC3)nn12 [Example 530] | 1.6
12 | COc1ccccc1OC1CCN(c2ccc3nnc(C(F)(F)F)n3n2)CC1 [Example 531] | 1.8
13 | Fc1cccc(OC2CCN(c3ccc4nnc(C(F)(F)F)n4n3)CC2)c1 [Example 532] | 0.98
14 | O=C(c1ccccc1)C1CCN(c2ccc3nnc(C(F)(F)F)n3n2)CC1 [Example 533] | 2.3
15 | O=C(c1ccc(F)cc1)C1CCN(c2ccc3nnc(C(F)(F)F)n3n2)CC1 [Example 534] | 2.3
16 | FC(F)(F)c1nnc2ccc(N3CCC(Cc4ccccc4)CC3)nn12 [Example 535] | 1.9
17 | Fc1ccc(CC2CCN(c3ccc4nnc(C(F)(F)F)n4n3)CC2)cc1 [Example 536] | 1.4
18 | FC(F)(F)c1nnc2ccc(N3CCC(Cc4ccccn4)CC3)nn12 [Example 537] | 3
19 | FC(F)(F)c1nnc2ccc(N3CCC(Cc4ccncc4)CC3)nn12 [Example 538] | 2.3

Row | Structure (SMILES) | DC50 [µM]
20 | FC(F)(F)c1nnc2ccc(N3CCC(Cc4cccnc4)CC3)nn12 [Example 539] | 1.5
21 | FC(F)(F)c1nnc2ccc(N3CCC(c4ccncc4)CC3)nn12 [Example 540] | 1.5
22 | FC(F)(F)c1nnc2ccc(N3CCC(n4ccc5ccccc54)CC3)nn12 [Example 542] | 2.6
23 | FC(F)(F)c1nnc2ccc(N3CCC(Oc4cnccn4)CC3)nn12 [Example 544] | 2.9
24 | FC(F)(F)c1nnc2ccc(N3CCC(Oc4ccncc4)CC3)nn12 [Example 545] | 3.6
25 | OC1(Cc2ccccc2)CCN(c2ccc3nnc(C(F)(F)F)n3n2)CC1 [Example 548] | 2.2
26 | OC1(c2ccccc2F)CCN(c2ccc3nnc(C(F)(F)F)n3n2)CC1 [Example 549] | 1.6
27 | OC1(c2ccncc2)CCN(c2ccc3nnc(C(F)(F)F)n3n2)CC1 [Example 550] | 7.2
28 | Fc1ccc(C2=CCN(c3ccc4nnc(C(F)(F)F)n4n3)CC2)cc1 [Example 552] | 7.8
29 | FC(F)(F)c1nnc2ccc(N3C[C@H]4CC[C@@H](C3)N4Cc3cccnc3)nn12 [Example 553, 6-[(1R,5S)-8-(pyridin-3-ylmethyl)-3,8-diazabicyclo[3.2.1]oct-3-yl]-3-(trifluoromethyl)[1,2,4]triazolo[4,3-b]pyridazine] | 2.6
30 | Fc1ccc(CN[C@H]2[C@@H]3CN(c4ccc5nnc(C(F)(F)F)n5n4)C[C@@H]32)cc1 [Example 554, (1α,5α,6α) N-(4-fluorobenzyl)-3-[3-(trifluoromethyl)[1,2,4]triazolo[4,3-b]pyridazin-6-yl]-3-azabicyclo[3.1.0]hexan-6-amine] | 4.9
31 | FC(F)(F)c1nnc2ccc(N3C[C@@H]4[C@H](C3)[C@H]4NCc3cccc(Cl)c3)nn12 [Example 555] | 1.4
32 | Fc1cccc(CN[C@H]2[C@@H]3CN(c4ccc5nnc(C(F)(F)F)n5n4)C[C@@H]32)c1 [Example 556] | 4.4
33 | FC(F)(F)c1nnc2ccc(N3CCC(COc4ncccn4)CC3)nn12 [Example 558] | 2.6
34 | FC(F)(F)c1nnc2ccc(N3CCC(COc4cccnc4)CC3)nn12 [Example 560] | 8.8
35 | FC(F)(F)c1nnc2ccc(N3CCC(COc4ccncc4)CC3)nn12 [Example 561] | 2.9
36 | FC(F)(F)c1nnc2ccc(N3CCC(COc4cccc(Cl)n4)CC3)nn12 [Example 562, 6-[4-[[(6-chloropyridin-2-yl)oxy]methyl]piperidin-1-yl]-3-(trifluoromethyl)[1,2,4]triazolo[4,3-b]pyridazine] | 2
37 | C[C@@H]1CN(c2ccc3nnc(C(F)(F)F)n3n2)CCN1Cc1cccnc1 [Example 564, 6-[(3R)-3-methyl-4-(pyridin-3-ylmethyl)piperazin-1-yl]-3-(trifluoromethyl)[1,2,4]triazolo[4,3-b]pyridazine] | 6.7
38 | C[C@@H]1CN(c2ccc3nnc(C(F)(F)F)n3n2)CCN1Cc1ccc(C#N)cc1 [Example 565] | 3.5

Row | Structure (SMILES) | DC50 [µM]
39 | C[C@@H]1CN(c2ccc3nnc(C(F)(F)F)n3n2)CCN1Cc1cc(F)cc(F)c1 [Example 567] | > 16
40 | C[C@@H]1CN(c2ccc3nnc(C(F)(F)F)n3n2)CCN1Cc1ccc(F)cc1 [Example 568] | 3.3
41 | C[C@@H]1CN(c2ccc3nnc(C(F)(F)F)n3n2)CCN1Cc1ccc(F)c(C#N)c1 [Example 569] | 2.7
42 | C[C@H]1CN(c2ccc3nnc(C(F)(F)F)n3n2)CCN1Cc1cccnc1 [Example 570, 6-[(3S)-3-methyl-4-(pyridin-3-ylmethyl)piperazin-1-yl]-3-(trifluoromethyl)[1,2,4]triazolo[4,3-b]pyridazine] | 4.5
43 | C[C@H]1CN(c2ccc3nnc(C(F)(F)F)n3n2)CCN1Cc1ccc(C#N)cc1 [Example 571] | 0.96
44 | C[C@H]1CN(c2ccc3nnc(C(F)(F)F)n3n2)CCN1Cc1ccc(F)c(F)c1 [Example 572] | 3.4
45 | C[C@H]1CN(c2ccc3nnc(C(F)(F)F)n3n2)CCN1Cc1ccc(F)c(C#N)c1 [Example 575] | 2.5
46 | FC(F)(F)c1nnc2ccc(N3CC[C@@H](Oc4cccnc4)C3)nn12 [Example 576, 6-[(3R)-3-(pyridin-3-yloxy)pyrrolidin-1-yl]-3-(trifluoromethyl)[1,2,4]triazolo[4,3-b]pyridazine] | 5
47 | FC(F)(F)c1nnc2ccc(N3CC[C@@H](Oc4ccncc4)C3)nn12 [Example 577, 6-[(3R)-3-(pyridin-4-yloxy)pyrrolidin-1-yl]-3-(trifluoromethyl)[1,2,4]triazolo[4,3-b]pyridazine] | 5
48 | FC(F)(F)c1nnc2ccc(N3CC[C@@H](Oc4ccccn4)C3)nn12 [Example 578, 6-[(3R)-3-(pyridin-2-yloxy)pyrrolidin-1-yl]-3-(trifluoromethyl)[1,2,4]triazolo[4,3-b]pyridazine] | 2.5
49 | FC(F)(F)c1ccc(O[C@@H]2CCN(c3ccc4nnc(C(F)(F)F)n4n3)C2)cc1 [Example 579] | 4.1
50 | N#Cc1ccc(O[C@@H]2CCN(c3ccc4nnc(C(F)(F)F)n4n3)C2)cc1 [Example 580] | 2
51 | Fc1ccc(O[C@@H]2CCN(c3ccc4nnc(C(F)(F)F)n4n3)C2)cc1 [Example 581] | 3.3
52 | COc1ccc(O[C@@H]2CCN(c3ccc4nnc(C(F)(F)F)n4n3)C2)cc1 [Example 582] | 2.4
53 | FC(F)(F)c1cccc(O[C@@H]2CCN(c3ccc4nnc(C(F)(F)F)n4n3)C2)c1 [Example 583] | 4.1
54 | N#Cc1cccc(O[C@@H]2CCN(c3ccc4nnc(C(F)(F)F)n4n3)C2)c1 [Example 584] | 2.8
55 | Fc1cccc(O[C@@H]2CCN(c3ccc4nnc(C(F)(F)F)n4n3)C2)c1 [Example 585] | 1.5
56 | COc1cccc(O[C@@H]2CCN(c3ccc4nnc(C(F)(F)F)n4n3)C2)c1 [Example 586] | 2.1
57 | FC(F)(F)c1nnc2ccc(N3CC[C@H](Oc4cccnc4)C3)nn12 [Example 587, 6-[(3S)-3-(pyridin-3-yloxy)pyrrolidin-1-yl]-3-(trifluoromethyl)[1,2,4]triazolo[4,3-b]pyridazine] | > 17
